In patent US20070155764A1, “NOVEL SUBSTITUTED PYRIMIDINYLOXY UREAS USEFUL AS INHIBITORS OF PROTEIN KINASES” (KALYPSYS, INC., priority 2005, published 2007) one finds IC50 data, which are given here for 19 compounds.

Assay type in all cases: biochemical
Test [1] concerns the target T1, human B-Raf protein kinase (Homo sapiens, UniProt P15056).
T1 construct: GST (N); purchased Upstate Inc. 14-530 (B-Raf); 14-420 (Mek1)
As to the kind of experiment: In vitro B-Raf/Mek1 composite kinase assay. Particulars: recombinant GST-tagged human B-Raf (Δ1-415) with inactive Mek1, 2 μM ATP. The procedure: In Vitro B-Raf/Mek1 Composite Kinase Assay
2.5 μl of B-Raf kinase buffer (20 mM MOPS [pH 7.2], 25 mM sodium glycerophosphate, 2 mM EGTA [pH 8.0], 1 mM sodium orthovanadate, 1 mM dithiothreitol, 10 mM MgCl2, 0.03% Brij-35, 0.3 mg/ml bovine serum albumin) containing 1 ng of recombinant, N-terminal GST-tagged human B-Raf protein kinase (Δ1-415, Upstate Inc., cat. #14-530) is dispensed to wells of a 1536 multi-well white solid plate. 60 nl of 100× concentration of test compound in DMSO is dispensed to the well by passive pin transfer and incubated for 15 minutes at room temperature (approx. 22° C.). […] The assay plates are sealed and maintained in a humidified environment. After 2 hours, 2.5 μl of PKLight protein kinase assay reagent (Cambrex, cat. #LT07-501) is dispensed. After an additional 5 minute incubation at room temperature, luminescence activity is measured on a Molecular Devices Analyst multi-mode plate reader or other suitable plate reader. Kinase inhibition results in less ATP depletion, and therefore increased luminescence signal. Negative control activity is measured with DMSO lacking any test compound. The positive control is [N-(3-trifluoromethyl-4-chlorophenyl)-N′-(4-(2-methylcarbamoyl-pyridin-4-yl)oxyphenyl)urea], aka Bay 43-9006. Efficacy is measured as a percentage of positive control activity.

The target in test [2] is T2, PDGFRβ kinase (Homo sapiens, UniProt P09619).
T2 construct: purchased Invitrogen Inc. P3082
T2 sequence (P09619 33-1106): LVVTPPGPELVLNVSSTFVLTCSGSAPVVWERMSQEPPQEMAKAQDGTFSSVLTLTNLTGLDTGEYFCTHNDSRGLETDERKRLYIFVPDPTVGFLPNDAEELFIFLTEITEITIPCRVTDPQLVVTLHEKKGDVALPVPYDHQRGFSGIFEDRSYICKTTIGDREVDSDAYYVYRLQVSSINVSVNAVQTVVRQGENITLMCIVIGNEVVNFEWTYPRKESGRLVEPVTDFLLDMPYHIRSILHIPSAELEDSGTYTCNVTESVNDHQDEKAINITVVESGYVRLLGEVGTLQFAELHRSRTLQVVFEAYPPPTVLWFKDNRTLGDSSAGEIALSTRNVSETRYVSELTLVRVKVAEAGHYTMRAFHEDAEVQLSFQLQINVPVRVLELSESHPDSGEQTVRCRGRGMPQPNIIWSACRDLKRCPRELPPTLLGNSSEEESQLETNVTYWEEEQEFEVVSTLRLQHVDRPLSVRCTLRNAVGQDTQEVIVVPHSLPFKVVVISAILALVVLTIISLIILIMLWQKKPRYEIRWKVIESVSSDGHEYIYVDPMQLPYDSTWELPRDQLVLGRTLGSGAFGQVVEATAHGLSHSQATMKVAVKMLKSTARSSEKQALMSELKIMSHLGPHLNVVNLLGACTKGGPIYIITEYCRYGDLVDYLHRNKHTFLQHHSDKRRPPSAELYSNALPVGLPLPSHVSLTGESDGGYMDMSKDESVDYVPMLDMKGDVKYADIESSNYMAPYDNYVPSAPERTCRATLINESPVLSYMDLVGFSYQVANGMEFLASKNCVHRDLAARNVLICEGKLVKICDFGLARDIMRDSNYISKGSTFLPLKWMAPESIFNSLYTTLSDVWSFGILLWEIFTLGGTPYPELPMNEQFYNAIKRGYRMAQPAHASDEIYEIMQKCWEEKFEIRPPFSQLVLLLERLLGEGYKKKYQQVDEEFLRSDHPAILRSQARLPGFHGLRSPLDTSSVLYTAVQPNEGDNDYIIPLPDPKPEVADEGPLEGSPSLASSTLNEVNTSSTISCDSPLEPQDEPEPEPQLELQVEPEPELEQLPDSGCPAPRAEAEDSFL
Nature of the test: In vitro PDGFRβ kinase assay. To be noted: ADP Quest assay, poly Glu:Tyr substrate, 60 μM ATP. The procedure: (§1) In vitro vegfr2 and PDGFRβ Kinase Assays
(§2) 2.5 μl of ADP Quest assay buffer (DiscoverX Inc., cat. #90-0071) containing 20 ng VEGFR2 kinase (Invitrogen Inc, cat. #PV3660) or 25 ng PDGFRβ kinase (Invitrogen Inc., cat. #P3082) is dispensed to wells of a 1536 multi-well, black solid plate. 60 nl of 100× concentration of test compound in DMSO is dispensed to the well by passive pin transfer and incubated for 10 minutes at room temperature (approx. 22° C.). 2.5 μl of ADP Quest assay buffer containing 0.25 μg of poly Glu:Tyr (4:1) substrate peptide (Upstate Inc., cat. #12-440) and 60 μM ATP is then dispensed and the kinase reaction allowed to incubate at 30° C. for 2 hours. The assay plates are sealed and maintained in a humidified environment. After the 2 hour incubation, 2 μl of ADP Quest assay reagent A, followed by 2 μl of assay reagent B, is added. After an additional 30 minute incubation at room temperature, fluorescence intensity is measured on a Molecular Devices Aquest multi-mode plate reader or other suitable plate reader (fluorescence excitation filter: 530/25 [Peak (nm)/FWHM passband (nm)]; dichroic beamsplitter: 561 nm longpass; fluorescence emission filter: 580/10 [Peak (nm)/FWHM passband (nm)]. The assay measures the conversion of a non-fluoresecent molecule to fluorescent resorutin, which correlates with kinase activity. Negative control activity is measured with DMSO lacking any test compound. The positive control is [N-(3-trifluoromethyl-4-chlorophenyl)-N′-(4-(2-methylcarbamoyl-pyridin-4-yl)oxyphenyl)urea], aka Bay 43-9006. Efficacy is measured as a percentage of positive control activity.

The target in test [3] is T3, VEGFR2 kinase (Homo sapiens, UniProt P35968).
T3 construct: purchased Invitrogen Inc PV3660
T3 sequence (P35968 20-1356): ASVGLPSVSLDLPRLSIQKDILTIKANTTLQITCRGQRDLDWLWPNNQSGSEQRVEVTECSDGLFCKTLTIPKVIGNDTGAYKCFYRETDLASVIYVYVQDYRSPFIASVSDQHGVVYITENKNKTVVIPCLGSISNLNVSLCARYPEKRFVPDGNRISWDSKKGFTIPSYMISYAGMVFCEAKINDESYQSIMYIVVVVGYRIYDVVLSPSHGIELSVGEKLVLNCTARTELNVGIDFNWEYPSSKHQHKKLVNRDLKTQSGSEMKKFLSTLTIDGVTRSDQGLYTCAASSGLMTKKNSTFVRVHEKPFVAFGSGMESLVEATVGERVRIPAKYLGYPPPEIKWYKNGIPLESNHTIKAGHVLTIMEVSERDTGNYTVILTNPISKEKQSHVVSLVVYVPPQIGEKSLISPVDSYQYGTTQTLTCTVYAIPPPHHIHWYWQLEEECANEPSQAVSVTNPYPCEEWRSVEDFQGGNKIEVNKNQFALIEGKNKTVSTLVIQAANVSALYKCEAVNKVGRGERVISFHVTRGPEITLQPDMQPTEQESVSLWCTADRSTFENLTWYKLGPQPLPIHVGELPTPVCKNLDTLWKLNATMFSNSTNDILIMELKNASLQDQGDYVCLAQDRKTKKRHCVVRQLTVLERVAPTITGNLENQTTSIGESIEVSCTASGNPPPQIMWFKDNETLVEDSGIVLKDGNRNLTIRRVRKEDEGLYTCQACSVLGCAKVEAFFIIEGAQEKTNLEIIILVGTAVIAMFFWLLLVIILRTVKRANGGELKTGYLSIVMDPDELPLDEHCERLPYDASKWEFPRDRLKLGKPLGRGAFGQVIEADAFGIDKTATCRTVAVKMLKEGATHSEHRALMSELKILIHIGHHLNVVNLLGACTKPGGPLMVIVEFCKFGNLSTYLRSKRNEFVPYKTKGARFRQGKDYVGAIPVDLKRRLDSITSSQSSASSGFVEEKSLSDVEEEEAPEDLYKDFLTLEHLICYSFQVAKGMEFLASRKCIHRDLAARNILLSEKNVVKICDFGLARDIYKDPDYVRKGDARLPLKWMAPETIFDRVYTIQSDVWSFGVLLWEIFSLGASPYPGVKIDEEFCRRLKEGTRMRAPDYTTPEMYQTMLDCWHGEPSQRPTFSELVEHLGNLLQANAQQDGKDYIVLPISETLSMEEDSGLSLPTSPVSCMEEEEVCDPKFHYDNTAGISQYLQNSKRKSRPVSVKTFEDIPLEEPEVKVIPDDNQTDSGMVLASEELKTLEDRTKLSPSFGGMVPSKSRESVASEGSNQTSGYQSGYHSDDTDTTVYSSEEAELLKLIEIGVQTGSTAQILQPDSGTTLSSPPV
Nature of the test: In vitro VEGFR2 kinase assay. Particulars: ADP Quest assay, poly Glu:Tyr substrate, 60 μM ATP. As to the method: as §1, §2

A value given as a limit tells only on which side of the number the result lay.

T1 sequence (P15056 416-766): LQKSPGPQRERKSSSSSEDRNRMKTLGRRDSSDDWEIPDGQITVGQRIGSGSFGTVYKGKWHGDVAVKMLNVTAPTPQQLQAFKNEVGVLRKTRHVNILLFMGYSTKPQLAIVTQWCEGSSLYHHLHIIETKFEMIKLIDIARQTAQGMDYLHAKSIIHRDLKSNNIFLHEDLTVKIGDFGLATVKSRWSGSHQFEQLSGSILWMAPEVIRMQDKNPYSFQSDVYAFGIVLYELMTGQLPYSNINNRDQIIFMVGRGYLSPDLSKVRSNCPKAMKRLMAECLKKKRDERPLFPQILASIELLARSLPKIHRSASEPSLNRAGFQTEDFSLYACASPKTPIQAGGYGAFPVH

In the case of `CCN(CC)CCNC(=O)c1cc(NC(=O)Nc2cccc(Oc3cc(-c4nnco4)ncn3)c2)cc(C(F)(F)F)c1` [Example 32, 3-(3-(3-(6-(1,3,4-Oxadiazol-2-yl)pyrimidin-4-yloxy)phenyl)ureido)-N-(2-(diethylamino)ethyl)-5-(trifluoromethyl)benzamide], the IC50 in test [1], in test [2] and in test [3] was at most 10 µM each time.
Turning to `O=C(Nc1cccc(Oc2cc(-c3nnco3)ncn2)c1)Nc1cc(CN2CCOCC2)cc(C(F)(F)F)c1` [Example 33, 1-(3-(6-(1,3,4-Oxadiazol-2-yl)pyrimidin-4-yloxy)phenyl)-3-(3-(morpholinomethyl)-5-(trifluoromethyl)phenyl)urea], the IC50 in test [1], in test [2] and in test [3] was at most 10 µM throughout.
Turning to `Cn1cc(-c2cc(Oc3ccc(NC(=O)Nc4ccc(Cl)c(C(F)(F)F)c4)cc3)ncn2)cn1` [Example 35, 1-(4-Chloro-3-(trifluoromethyl)phenyl)-3-(4-(6-(1-methyl-1H-pyrazol-4-yl)pyrimidin-4-yloxy)phenyl)urea], the IC50 in test [1], in test [2] and in test [3] was at most 10 µM each time.
Regarding `CN1CCN(Cc2cc(NC(=O)Nc3cccc(Oc4cc(-c5ncco5)ncn4)c3)cc(C(F)(F)F)c2)CC1` [Example 36, 1-(3-((4-Methylpiperazin-1-yl)methyl)-5-(trifluoromethyl)phenyl)-3-(3-(6-(oxazol-2-yl)pyrimidin-4-yloxy)phenyl)urea], the IC50 is at most 10 µM in test [1], at most 10 µM in test [2] and over 10 µM in test [3].
Take `O=C(Nc1cccc(Oc2ccnc(-c3nnco3)c2)c1)Nc1cc(C(F)(F)F)c(Cl)cc1OCCN1CCCC1` [Example 37, 1-(3-(2-(1,3,4-Oxadiazol-2-yl)pyridin-4-yloxy)phenyl)-3-(4-chloro-2-(2-(pyrrolidin-1-yl)ethoxy)-5-(trifluoromethyl)phenyl)urea]: the IC50 in test [1], in test [2] and in test [3] was at most 10 µM in each case.
For the compound `CN1CCN(Cc2cc(NC(=O)Nc3cccc(Oc4ccnc(-c5nnco5)c4)c3)cc(C(F)(F)F)c2)CC1` [Example 38, 1-(3-(2-(1,3,4-Oxadiazol-2-yl)pyridin-4-yloxy)phenyl)-3-(3-((4-methylpiperazin-1-yl)methyl)-5-(trifluoromethyl)phenyl)urea], the IC50 in test [1], in test [2] and in test [3] was at most 10 µM in each case.
As to `CN1CCN(Cc2cc(NC(=O)Nc3ccc(Oc4ccnc(-c5nnco5)c4)cc3)cc(C(F)(F)F)c2)CC1` [Example 39, 1-(4-(2-(1,3,4-Oxadiazol-2-yl)pyridin-4-yloxy)phenyl)-3-(3-((4-methylpiperazin-1-yl)methyl)-5-(trifluoromethyl)phenyl)urea], the IC50 in test [1], in test [2] and in test [3] was at most 10 µM throughout.
For `O=C(Nc1cccc(Oc2cc(-c3ccn[nH]3)ncn2)c1)Nc1ccc(Cl)c(C(F)(F)F)c1` [Example 40, 1-(3-(6-(1H-Pyrazol-5-yl)pyrimidin-4-yloxy)phenyl)-3-(4-chloro-3-(trifluoromethyl)phenyl)urea], the IC50 in test [1], in test [2] and in test [3] was at most 10 µM throughout.
On to `O=C(Nc1ccc(Oc2ccnc(-c3nnco3)c2)cc1)Nc1cc(C(F)(F)F)c(Cl)cc1OCCN1CCCC1` [Example 41, 1-(4-(2-(1,3,4-Oxadiazol-2-yl)pyridin-4-yloxy)phenyl)-3-(4-chloro-2-(2-(pyrrolidin-1-yl)ethoxy)-5-(trifluoromethyl)phenyl)urea], for which the concentration for half-maximal inhibition (IC50) in test [1], in test [2] and in test [3] was at most 10 µM throughout.
On to `O=C(Nc1cccc(Oc2cc(-c3ccno3)ncn2)c1)Nc1ccc(Cl)c(C(F)(F)F)c1` [Example 42, 1-(4-chloro-3-(trifluoromethyl)phenyl)-3-(3-(6-(isoxazol-5-yl)pyrimidin-4-yloxy)phenyl)urea], for which the half-inhibitory concentration (IC50) in test [1], in test [2] and in test [3] was at most 10 µM in each case.
As to `O=C(Nc1ccc(Oc2ccnc(-c3nnco3)c2)cc1)Nc1cc(CN2CCOCC2)cc(C(F)(F)F)c1` [Example 43, 1-(4-(2-(1,3,4-Oxadiazol-2-yl)pyridin-4-yloxy)phenyl)-3-(3-(morpholinomethyl)-5-(trifluoromethyl)phenyl)urea], the IC50 in test [1], in test [2] and in test [3] was at most 10 µM throughout.
On to `CN1CCC(Oc2cc(Cl)c(C(F)(F)F)cc2NC(=O)Nc2ccc(Oc3ccnc(-c4nnco4)c3)cc2)CC1` [Example 44], for which the IC50 in test [1], in test [2] and in test [3] was at most 10 µM throughout.
In the case of `O=C(Nc1ccc(Cl)c(C(F)(F)F)c1)Nc1cc(Oc2cc(-c3nnco3)ncn2)c(F)cc1F` [Example 45, 1-(5-(6-(1,3,4-Oxadiazol-2-yl)pyrimidin-4-yloxy)-2,4-difluorophenyl)-3-(4-chloro-3-(trifluoromethyl)phenyl)urea], the half-inhibitory concentration (IC50) in test [1], in test [2] and in test [3] was at most 10 µM in each case.
Turning to `Cc1nc(-c2cc(Oc3cccc(NC(=O)Nc4ccc(Cl)c(C(F)(F)F)c4)c3)ncn2)cs1` [Example 46, 1-(4-Chloro-3-(trifluoromethyl)phenyl)-3-(3-(6-(2-methylthiazol-4-yl)pyrimidin-4-yloxy)phenyl)urea], the IC50 in test [1], in test [2] and in test [3] was at most 10 µM each time.
Take `CN1CCC(OCc2cc(NC(=O)Nc3ccc(Oc4ccnc(-c5nnco5)c4)cc3)cc(C(F)(F)F)c2)CC1` [Example 47, 1-(4-(2-(1,3,4-Oxadiazol-2-yl)pyridin-4-yloxy)phenyl)-3-(3-((1-methylpiperidin-4-yloxy)methyl)-5-(trifluoromethyl)phenyl)urea]: the IC50 in test [1], in test [2] and in test [3] was at most 10 µM in each case.
For `O=C(Nc1cccc(Oc2cc(-c3nnco3)ncn2)c1)Nc1ccc(C(F)(F)F)c(Cl)c1` [Example 48, 1-(3-(6-(1,3,4-Oxadiazol-2-yl)pyrimidin-4-yloxy)phenyl)-3-(3-chloro-4-(trifluoromethyl)phenyl)urea], the IC50 in test [1], in test [2] and in test [3] was at most 10 µM each time.
Take `O=C(Nc1cccc(Oc2cc(-c3cnn(Cc4ccccc4)c3)ncn2)c1)Nc1ccc(Cl)c(C(F)(F)F)c1` [Example 49, 1-(3-(6-(1-Benzyl-1H-pyrazol-4-yl)pyrimidin-4-yloxy)phenyl)-3-(4-chloro-3-(trifluoromethyl)phenyl)urea]: the half-inhibitory concentration (IC50) in test [1] was at most 10 µM; in test [2], over 10 µM; in test [3], over 10 µM.
Consider `CN(C)CCNc1nc(-c2cc(Oc3cccc(NC(=O)Nc4ccc(Cl)c(C(F)(F)F)c4)c3)ncn2)cs1` [Example 50, 1-(4-Chloro-3-(trifluoromethyl)phenyl)-3-(3-(6-(2-(2-(dimethylamino)ethylamino)thiazol-4-yl)pyrimidin-4-yloxy)phenyl)urea], for which the IC50 in test [1], in test [2] and in test [3] was at most 10 µM throughout.
For `Cc1cn(-c2cc(NC(=O)Nc3ccc(Oc4cc(-c5cnn(C)c5)ncn4)cc3)cc(C(F)(F)F)c2)cn1` [Example 51, 1-(3-(4-Methyl-1H-imidazol-1-yl)-5-(trifluoromethyl)phenyl)-3-(4-(6-(1-methyl-1H-pyrazol-4-yl)pyrimidin-4-yloxy)phenyl)urea], the IC50 in test [1], in test [2] and in test [3] was at most 10 µM each time.
